Values of other authors in paper PMC4324444 (ACS Chemical Biology, 2014).
pKi: −log10 of the molar value.

Target: XIAP
Conditions: read-out: binding affinity to XIAP (Ki)

## CN[C@@H](C)C(=O)N[C@H](C(=O)N1CC[C@H](C)[C@H]1C(=O)Nc1ccccc1-c1ncccn1)C1CCCCC1 [CS3]
  pKi: < 4.52
